Assay results reported in US7612200B2, “Inhibitors of protein kinases” (Locus Pharmaceuticals, Inc., priority 2004, dated 2009).

What was measured:
[1] = biological target: EGFR (Homo sapiens, UniProt P00533); assay: Kinase activity at ATP Km,app, EGFR; format: biochemical; settings: compound 2 μM
[2] = system: MCF-7; assay: Cell growth inhibition, MCF-7; format: cell-based; settings: Homo sapiens, MCF7; MCF-7 cell line; 24 hours; viability by WST-1 or Alamar Blue
Protocol: (§1) The compounds of Examples 1 and 2 were also tested for cell growth inhibition activity a gains two cell lines, MCF-7 and U266. […], suspended in RPMI 1640 media, supplemented with 10% FBS, were pipetted into 96-well plates at a density of 10,000 cells per milliliter in a volume of […] per well. Cells were allowed to equilibrate overnight at 37 C in 5% CO2. Cells were then incubated in the presence of the test compound at a concentrations ranging from 0.03 μM to 10 μM (at ½ log dilutions) for 24 hours. After the incubation period, cells were assessed for viability using either WST-1 (Biovision) or Alamar Blue (BioSourse). Values from treated cells were compared to values from control cells and values expressed as percent control.

[3] = biological target: IGF1R (Homo sapiens, UniProt P08069); assay: Kinase activity at ATP Km,app, IGF1R; format: biochemical; settings: 40 min, compound 2 μM
Protocol: (§2) IGF-1R Kinase Activity In a final reaction volume of 25 μl, IGF-1R (h) (5-10 mU) is incubated with 50 mM Tris pH 7.5, 0.1 mM EGTA, 0.1 mM Na3VO4, 0.1% β-mercaptoethanol, 250 μM KKKSPEGYVNIEFG, 10 mM MnCl2, 10 mM MgAcetate and [γ-^33P-ATP] (specific activity approx. 500 cpm/pmol, concentration as required). The reaction is initiated by the addition of the MgATP mix. After incubation for 40 minutes at room temperature, the reaction is stopped by the addition of 5 μl of a 3% phosphoric acid solution. 10 μl of the reaction is then spotted onto a P30 filtermat and washed three times for 5 minutes in 75 mM phosphoric acid and once in methanol prior to drying and scintillation counting.

[4] = system: U266; assay: Cell growth inhibition, U266; format: cell-based; settings: Homo sapiens, U-266; U266 cell line; 24 hours; viability by WST-1 or Alamar Blue
Protocol: as §1

[5] = biological target: FGFR1 (Homo sapiens, UniProt P11362); assay: Kinase activity at ATP Km,app, FGFR1; format: biochemical; settings: compound 2 μM
[6] = biological target: PKC-alpha (Homo sapiens, UniProt P17252); assay: Kinase activity at ATP Km,app, PKC-alpha; format: biochemical; settings: 40 min, compound 2 μM
Protocol: PKCα Kinase Activity: In a final reaction volume of 25 μl, PKCα (h) (5-10 mU) is incubated with 20 mM HEPES pH 7.4, 0.03% Triton X-100, 0.1 mM CaCl2, 0.1 mg/ml phosphatidylserine, 10 μg/ml diacylglycerol, 0.1 mg/ml histone Hi, 10 mM MgAcetate and [γ-^33P-ATP] (specific activity approx. 500 cpm/pmol, concentration as required). The reaction is initiated by the addition of the MgATP mix. After incubation for 40 minutes at room temperature, the reaction is stopped by the addition of 5 μl of a 3% phosphoric acid solution. 10 μl of the reaction is then spotted onto a P30 filtermat and washed three times for 5 minutes in 75 mM phosphoric acid and once in methanol prior to drying and scintillation counting.

[7] = biological target: c-MET (Homo sapiens, UniProt P08581); assay: Kinase activity at ATP Km,app, c-MET; format: biochemical; settings: compound 2 μM
Protocol: Met Kinase Activity: In a final reaction volume of 25 μl, Met (h) (5-10 mU) is incubated with 8 mM MOPS pH 7.0, 0.2 mM EDTA, 250 μM KKKSPEGYVNIEFG, 10 mM MgAcetate and [γ-^33P-ATP] (specific activity approx. 500 cpm/pmol, concentration as required). The reaction is initiated by the addition of the MgATP mix. After incubation for 40 minutes at room temperature, the reaction is stopped by the addition of 5 μl of a 3% phosphoric acid solution. 10 μl of the reaction is then spotted onto a P30 filtermat and washed three times for 5 minutes in 75 mM phosphoric acid and once in methanol prior to drying and scintillation counting.

[8] = biological target: Lck (Homo sapiens, UniProt P06239); assay: Kinase activity at ATP Km,app, Lck; format: biochemical; settings: 40 min, compound 2 μM
Protocol: as §2, with “Lck” for “IGF-1R”, “Activity:” for “Activity”, “[…], Lck” for “μl, IGF-1R”, “Na3VO4,” for “Na3VO4, 0.1% β-mercaptoethanol,”, “KVEKIGEGTYGVVYK (Cdc2 peptide),” for “KKKSPEGYVNIEFG, 10 mM MnCl2,”

[9] = biological target: ERK2 (Homo sapiens, UniProt P28482); assay: Kinase activity at ATP Km,app, ERK2; format: biochemical; settings: compound 2 μM
[10] = system: Abl1; assay: Kinase activity at ATP Km,app, Abl1; format: biochemical, mouse; settings: compound 2 μM
Protocol: Abl Kinase activity: In a final reaction volume of 25 μL, Able (m) (5-10 mU) is incubated with […] pH 7.0, 0.2 mM EDTA, 50 μM EAIYAAPFAKKK, 10 mM MgAcetate and [γ-^33P-ATP] (specific activity approx. 500 cpm/pmol, concentration as required). The reaction is initiated by the addition of the MgATP mix. After incubation for 40 minutes at room temperature, the reaction is stopped by the addition of 5 μL of a 3% phosphoric acid solution. 10 μL of the reaction is then spotted onto a P30 filtermat and washed three times for 5 minutes in 75 mM phosphoric acid and once in methanol prior to drying and scintillation counting.

[11] = biological target: p38α (Homo sapiens, UniProt Q16539); assay: SAPK2a Kinase Activity (p38α); format: biochemical
Protocol: SAPK2a Kinase Activity: In a final reaction volume of 25 μl, SAPK2a (h) (5-10 mU) is incubated with 25 mM Tris pH 7.5, 0.02 mM EGTA, 0.33 mg/ml myelin basic protein, 10 mM MgAcetate and [γ-^33P-ATP] (specific activity approx. 500 cpm/pmol, concentration as required). The reaction is initiated by the addition of the MgATP mix. After incubation for 40 minutes at room temperature, the reaction is stopped by the addition of 5 μl of a 3% phosphoric acid solution. 10 μl of the reaction is the spotted onto a P30 filtermat and washed three times for 5 minutes in 75 mM phosphoric acid and once in methanol prior to drying and scintillation counting.

IGF1R, sequence (P08069 31-1367): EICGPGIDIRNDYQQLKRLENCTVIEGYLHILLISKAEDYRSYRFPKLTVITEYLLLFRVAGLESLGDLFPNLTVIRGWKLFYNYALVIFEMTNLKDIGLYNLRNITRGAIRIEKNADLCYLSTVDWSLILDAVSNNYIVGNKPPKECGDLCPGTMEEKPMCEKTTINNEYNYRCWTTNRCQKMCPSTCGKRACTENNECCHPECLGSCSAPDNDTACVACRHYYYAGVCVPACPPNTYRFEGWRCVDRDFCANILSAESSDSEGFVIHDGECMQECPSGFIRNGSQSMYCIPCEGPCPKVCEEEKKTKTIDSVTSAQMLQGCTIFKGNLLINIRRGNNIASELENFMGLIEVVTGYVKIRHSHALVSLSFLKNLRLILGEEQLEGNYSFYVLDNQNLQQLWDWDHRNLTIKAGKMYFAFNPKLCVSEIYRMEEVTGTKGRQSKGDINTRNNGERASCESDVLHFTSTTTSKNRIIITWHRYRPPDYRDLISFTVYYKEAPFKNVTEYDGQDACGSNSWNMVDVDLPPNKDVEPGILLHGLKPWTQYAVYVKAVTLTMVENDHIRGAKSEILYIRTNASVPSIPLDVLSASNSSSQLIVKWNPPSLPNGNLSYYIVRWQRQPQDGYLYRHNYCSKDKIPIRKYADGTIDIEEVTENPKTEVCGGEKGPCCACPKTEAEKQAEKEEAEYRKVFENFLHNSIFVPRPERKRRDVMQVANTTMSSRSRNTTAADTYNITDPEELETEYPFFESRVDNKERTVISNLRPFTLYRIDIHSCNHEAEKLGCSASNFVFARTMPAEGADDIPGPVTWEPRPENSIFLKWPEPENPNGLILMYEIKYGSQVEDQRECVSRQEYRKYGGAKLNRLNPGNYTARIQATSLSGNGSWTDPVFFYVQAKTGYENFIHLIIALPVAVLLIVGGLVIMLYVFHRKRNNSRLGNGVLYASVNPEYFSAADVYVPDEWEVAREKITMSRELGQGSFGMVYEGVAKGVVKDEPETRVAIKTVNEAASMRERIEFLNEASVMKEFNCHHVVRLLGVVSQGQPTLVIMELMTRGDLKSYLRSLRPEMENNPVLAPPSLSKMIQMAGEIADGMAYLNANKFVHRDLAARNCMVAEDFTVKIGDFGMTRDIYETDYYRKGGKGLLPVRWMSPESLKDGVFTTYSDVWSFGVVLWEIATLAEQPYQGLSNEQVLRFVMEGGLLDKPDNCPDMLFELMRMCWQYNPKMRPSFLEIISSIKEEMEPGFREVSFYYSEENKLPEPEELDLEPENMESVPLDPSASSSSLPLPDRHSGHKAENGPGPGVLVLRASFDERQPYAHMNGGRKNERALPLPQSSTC
Lck, sequence (P06239 whole entry): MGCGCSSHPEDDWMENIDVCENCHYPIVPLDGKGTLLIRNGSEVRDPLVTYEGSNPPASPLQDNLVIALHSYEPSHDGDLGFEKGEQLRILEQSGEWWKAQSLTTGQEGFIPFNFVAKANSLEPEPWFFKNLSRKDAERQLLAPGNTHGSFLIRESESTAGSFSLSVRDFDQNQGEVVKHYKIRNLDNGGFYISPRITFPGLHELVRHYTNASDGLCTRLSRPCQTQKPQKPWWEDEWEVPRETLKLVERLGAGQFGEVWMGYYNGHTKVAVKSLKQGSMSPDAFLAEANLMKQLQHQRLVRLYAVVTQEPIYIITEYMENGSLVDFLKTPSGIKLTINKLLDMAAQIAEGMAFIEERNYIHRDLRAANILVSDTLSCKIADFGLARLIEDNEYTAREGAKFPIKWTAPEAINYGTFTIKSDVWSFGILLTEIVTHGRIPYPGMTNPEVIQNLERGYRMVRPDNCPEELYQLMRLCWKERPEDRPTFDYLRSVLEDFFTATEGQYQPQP
ERK2, sequence (P28482 whole entry, species assumed): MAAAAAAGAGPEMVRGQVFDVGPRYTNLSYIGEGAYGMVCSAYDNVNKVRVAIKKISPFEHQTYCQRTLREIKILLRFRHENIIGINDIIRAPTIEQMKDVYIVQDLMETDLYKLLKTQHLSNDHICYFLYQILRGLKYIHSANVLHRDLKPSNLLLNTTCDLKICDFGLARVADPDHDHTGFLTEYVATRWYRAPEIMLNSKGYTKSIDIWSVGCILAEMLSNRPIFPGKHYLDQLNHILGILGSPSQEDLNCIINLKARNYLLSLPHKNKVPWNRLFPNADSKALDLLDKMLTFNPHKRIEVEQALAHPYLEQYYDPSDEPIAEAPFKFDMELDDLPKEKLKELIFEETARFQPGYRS
c-MET, sequence (P08581 25-1390): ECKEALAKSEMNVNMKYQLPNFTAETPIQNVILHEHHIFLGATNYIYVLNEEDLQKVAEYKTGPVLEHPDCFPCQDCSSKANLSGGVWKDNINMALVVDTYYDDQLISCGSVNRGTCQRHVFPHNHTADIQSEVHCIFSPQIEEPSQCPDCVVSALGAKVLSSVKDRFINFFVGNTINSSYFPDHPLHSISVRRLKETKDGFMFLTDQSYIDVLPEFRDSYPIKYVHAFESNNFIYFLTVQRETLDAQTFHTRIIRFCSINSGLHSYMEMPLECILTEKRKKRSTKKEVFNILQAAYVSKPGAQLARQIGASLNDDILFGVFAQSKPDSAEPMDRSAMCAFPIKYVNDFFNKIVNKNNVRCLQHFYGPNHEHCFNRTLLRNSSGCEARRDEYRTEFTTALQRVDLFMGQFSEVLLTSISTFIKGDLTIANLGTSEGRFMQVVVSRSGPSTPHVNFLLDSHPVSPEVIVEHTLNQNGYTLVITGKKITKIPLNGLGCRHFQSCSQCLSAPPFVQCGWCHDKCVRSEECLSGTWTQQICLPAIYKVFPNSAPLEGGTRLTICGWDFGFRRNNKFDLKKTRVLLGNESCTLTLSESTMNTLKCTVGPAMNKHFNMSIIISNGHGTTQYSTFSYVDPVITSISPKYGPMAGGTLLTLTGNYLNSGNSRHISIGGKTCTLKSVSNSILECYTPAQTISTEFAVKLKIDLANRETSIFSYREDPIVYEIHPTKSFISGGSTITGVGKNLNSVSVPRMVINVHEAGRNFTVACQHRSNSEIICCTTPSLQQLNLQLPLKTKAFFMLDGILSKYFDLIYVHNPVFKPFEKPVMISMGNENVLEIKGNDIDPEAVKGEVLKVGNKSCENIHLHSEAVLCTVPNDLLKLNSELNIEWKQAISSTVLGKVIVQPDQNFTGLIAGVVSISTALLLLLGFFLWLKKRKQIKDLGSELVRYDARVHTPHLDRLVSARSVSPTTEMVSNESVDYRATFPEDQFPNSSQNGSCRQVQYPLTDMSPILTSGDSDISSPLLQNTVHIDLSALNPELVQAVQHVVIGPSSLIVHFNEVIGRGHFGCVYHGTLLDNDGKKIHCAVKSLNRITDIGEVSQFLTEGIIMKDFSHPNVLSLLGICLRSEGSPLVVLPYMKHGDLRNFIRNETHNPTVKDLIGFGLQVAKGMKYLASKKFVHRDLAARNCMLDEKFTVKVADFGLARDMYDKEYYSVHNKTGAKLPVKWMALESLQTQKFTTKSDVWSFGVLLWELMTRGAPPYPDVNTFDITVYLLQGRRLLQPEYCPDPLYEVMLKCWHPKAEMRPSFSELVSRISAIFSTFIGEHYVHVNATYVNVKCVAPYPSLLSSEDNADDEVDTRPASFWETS
FGFR1, sequence (P11362 22-822, species assumed): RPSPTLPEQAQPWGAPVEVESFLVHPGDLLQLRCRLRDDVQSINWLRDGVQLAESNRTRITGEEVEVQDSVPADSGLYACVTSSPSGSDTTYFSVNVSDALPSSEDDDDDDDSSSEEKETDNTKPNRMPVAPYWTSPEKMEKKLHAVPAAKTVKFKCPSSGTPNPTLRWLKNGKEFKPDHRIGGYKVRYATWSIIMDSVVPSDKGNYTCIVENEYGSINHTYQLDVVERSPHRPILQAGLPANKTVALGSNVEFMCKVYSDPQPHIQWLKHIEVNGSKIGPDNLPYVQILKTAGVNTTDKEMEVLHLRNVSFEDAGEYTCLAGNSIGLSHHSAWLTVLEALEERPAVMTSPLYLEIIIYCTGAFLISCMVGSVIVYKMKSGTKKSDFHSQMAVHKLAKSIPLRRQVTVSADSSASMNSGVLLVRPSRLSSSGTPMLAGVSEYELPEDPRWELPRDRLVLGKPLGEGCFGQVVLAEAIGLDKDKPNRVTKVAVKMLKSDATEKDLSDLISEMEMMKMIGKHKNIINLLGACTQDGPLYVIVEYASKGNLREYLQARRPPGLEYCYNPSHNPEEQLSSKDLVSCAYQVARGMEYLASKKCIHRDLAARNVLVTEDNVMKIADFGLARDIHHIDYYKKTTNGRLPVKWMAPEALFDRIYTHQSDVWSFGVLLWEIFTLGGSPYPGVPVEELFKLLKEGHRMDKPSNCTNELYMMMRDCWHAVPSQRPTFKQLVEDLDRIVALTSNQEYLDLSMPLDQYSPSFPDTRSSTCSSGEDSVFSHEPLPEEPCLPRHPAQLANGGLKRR

Row | % Inhibition at ATP Km,app [1] | IC50 [2] [µM] | inhibition at 2 µM [3] [%] | IC50 [4] [µM] | inhibition at 2 µM [5] [%] | inhibition at 2 µM [6] [%] | % Inhibition at ATP Km,app [7] | inhibition at 2 µM [8] [%] | inhibition at 2 µM [9] [%] | % Inhibition at ATP Km,app [10] | % inhibition ([11]; P38a, Human, Rate (μM) 2) | % Inhibition at 2 μm ([11]; p38α, compound at 2 μm) | SMILES
1 | 0-25% | < 10 | 0 to 25 | < 10 | 0 to 25 | 0 to 25 | 0-25% | 0 to 25 | 0 to 25 | 0-25% | – | – | CC(C)(C)c1cc(C(=O)N2CCNS(=O)(=O)CC2)c(NC(=O)Nc2ccc(Oc3ccncc3)cc2)s1 [Example 1, 1-(5-tert-Butyl-3-(1,1-dioxo-1λ^6-[1,2,5]thiadiazepane-5-carbonyl)thiophen-2-yl)-3-(4-(pyridin-4-yloxy)phenyl)urea]
2 | 0-25% | < 10 | 0 to 25 | < 10 | 0 to 25 | 0 to 25 | 26-50% | 0 to 25 | 0 to 25 | 0-25% | – | – | CC(C)(C)c1cc(C(=O)N2CCNC(=O)C2)c(NC(=O)Nc2ccc(Oc3ccncc3)cc2)s1 [Example 2, 1-(5-tert-Butyl-3-(3-oxo-piperazine-1-carbonyl)thiophen-2-yl)-3-(4-(pyridin-4-yloxy)phenyl)urea]
3 | – | – | – | – | – | – | – | – | – | – | 76-100% | 76-100% | CC(C)(C)c1cc(C(=O)N2CCS(=O)(=O)CC2)c(NC(=O)Nc2ccc(Oc3ccncc3)cc2)s1 [Example 3, 1-[5-tert-Butyl-3-(1,1-dioxo-1λ^6-thiomorpholine-4-carbonyl)thiophen-2-yl]-3-[4-(pyridin-4-yloxy)phenyl]urea]
4 | 0-25% | – | 0 to 25 | – | 26 to 50 | 0 to 25 | 0-25% | 0 to 25 | 0 to 25 | 0-25% | – | – | CC(C)(C)c1cc(C(=O)N2CCNC(=O)CC2)c(NC(=O)Nc2ccc(Oc3ccncc3)cc2)s1 [Example 4, 1-(5-tert-Butyl-3-(5-oxo-[1,4]diazepane-1-carbonyl)thiophen-2-yl)-3-(4-(pyridin-4-yloxy)phenyl)urea]
